{
  "source": "ChEMBL document CHEMBL5338704",
  "about": "“Discovery of novel phenylhydrazone-based oxindole-thiolazoles as potent antibacterial agents toward Pseudomonas aeruginosa” (Eur J Med Chem, 2022)",
  "key": {"[1]": {"assay": "Hemolytic activity in RBC (unknown origin) assessed as hemolysis", "format": "toxicity, cell-based, Erythrocyte", "conditions": "red blood cells (erythrocytes)"}, "Escherichia coli [2]": {"tested_on": "Escherichia coli", "assay": "Antibacterial activity against Escherichia coli assessed as inhibition of bacterial growth by micro-broth dilution assay", "format": "functional"}, "Pseudomonas aeruginosa [3]": {"tested_on": "Pseudomonas aeruginosa", "assay": "Induction of resistance development in Pseudomonas aeruginosa ATCC 27853 treated over 30 serial passages", "format": "functional, organism-based"}, "Pseudomonas aeruginosa [4]": {"tested_on": "Pseudomonas aeruginosa", "assay": "Inhibition of biofilm formation in Pseudomonas aeruginosa assessed as removal of mature biofilm by crystal violet staining based analysis", "format": "functional, organism-based", "conditions": "dose 0.5-8 µg/ml"}, "Cell membrane [5]": {"tested_on": "Cell membrane", "assay": "Induction of inner membrane damage in Pseudomonas aeruginosa incubated for 6 hrs by Calcein AM dye based fluorescence based assay", "format": "subcellular"}, "Staphylococcus aureus [6]": {"tested_on": "Staphylococcus aureus", "assay": "Antibacterial activity against Staphylococcus aureus assessed as inhibition of bacterial growth by micro-broth dilution assay", "format": "functional"}, "Klebsiella pneumoniae": {"tested_on": "Klebsiella pneumoniae", "assay": "Antibacterial activity against Klebsiella pneumoniae assessed as inhibition of bacterial growth by micro-broth dilution assay", "format": "functional"}, "Pseudomonas aeruginosa [7]": {"tested_on": "Pseudomonas aeruginosa", "assay": "Inhibition of biofilm formation in Pseudomonas aeruginosa by crystal violet staining based analysis", "format": "functional, organism-based", "conditions": "dose 0.5-8 µg/ml"}, "Staphylococcus aureus [8]": {"tested_on": "Staphylococcus aureus", "assay": "Antibacterial activity against Staphylococcus aureus ATCC 25923 assessed as inhibition of bacterial growth by micro-broth dilution assay", "format": "functional"}, "Pseudomonas aeruginosa [9]": {"tested_on": "Pseudomonas aeruginosa", "assay": "Antibacterial activity against Pseudomonas aeruginosa ATCC 27853 assessed as inhibition of bacterial growth by micro-broth dilution assay", "format": "functional"}, "DNA [10]": {"tested_on": "DNA", "assay": "Binding affinity to Pseudomonas aeruginosa DNA assessed as reduction in acridine orange-DNA complex formation by competitive binding assay", "format": "nucleic-acid assay"}, "Escherichia coli [11]": {"tested_on": "Escherichia coli", "assay": "Antibacterial activity against Escherichia coli ATCC 25922 assessed as inhibition of bacterial growth by micro-broth dilution assay", "format": "functional"}, "[12]": {"assay": "Selectivity index, ratio of HC50 for hemolytic activity in RBC (unknown origin) assessed as hemolysis to MIC for antibacterial activity against Pseudomonas aeruginosa assessed as inhibition of bacterial growth by micro-broth dilution assay", "format": "toxicity", "conditions": "red blood cells (erythrocytes)"}, "Pseudomonas aeruginosa [13]": {"tested_on": "Pseudomonas aeruginosa", "assay": "Potency index, ratio of norfloxacin MIC to test compound MIC for antibacterial activity against Pseudomonas aeruginosa assessed as inhibition of bacterial growth by micro-broth dilution assay", "format": "functional"}, "Pseudomonas aeruginosa [14]": {"tested_on": "Pseudomonas aeruginosa", "assay": "Inhibition of biofilm formation in Pseudomonas aeruginosa at 0.5 to 8 microg/ml by crystal violet staining based analysis", "format": "functional", "conditions": "dose 0.5-8 µg/ml; at 0.5 to 8 µg/mL"}, "Pseudomonas aeruginosa [15]": {"tested_on": "Pseudomonas aeruginosa", "assay": "Antibacterial activity against Pseudomonas aeruginosa assessed as reduction in LDH activity at 0.5 to 8 times MIC", "format": "functional, organism-based"}, "Pseudomonas aeruginosa [16]": {"tested_on": "Pseudomonas aeruginosa", "assay": "Induction of oxidative stress in Pseudomonas aeruginosa assessed as decrease in GSH activity at 0.5 to 8 times MIC by Ellman's assay", "format": "functional, organism-based"}, "Cell membrane [17]": {"tested_on": "Cell membrane", "assay": "Induction of inner membrane damage in Pseudomonas aeruginosa assessed as decrease in green fluorescence cells at 0.5 to 8 times MIC incubated for 6 hrs by Calcein AM dye based fluorescence based assay", "format": "subcellular"}, "Cell membrane [18]": {"tested_on": "Cell membrane", "assay": "Induction of outer membrane permeabilization in Pseudomonas aeruginosa assessed as increase in fluorescence intensity at 0.5 to 8 microg/ml by NPN-dye based fluorescence analysis", "conditions": "dose 0.5-8 µg/ml"}, "Staphylococcus aureus [19]": {"tested_on": "Staphylococcus aureus", "assay": "Antibacterial activity against methicillin resistant Staphylococcus aureus assessed as inhibition of bacterial growth by micro-broth dilution assay", "format": "functional"}, "Cell membrane [20]": {"tested_on": "Cell membrane", "assay": "Induction of cytoplasmic membrane depolarization in Pseudomonas aeruginosa assessed as increase in fluorescence intensity at 0.5 to 4 times MIC by DiSC35 dye based fluorescence analysis", "format": "subcellular", "conditions": "time 30.0 min, TDE = time-dependent effect"}, "Pseudomonas aeruginosa [21]": {"tested_on": "Pseudomonas aeruginosa", "assay": "Antibacterial activity against Pseudomonas aeruginosa assessed as reduction in LDH activity at 8 times MIC", "format": "functional", "parameters": "scale not given: the % may be the effect or the level left"}, "DNA [22]": {"tested_on": "DNA", "assay": "Binding affinity to Pseudomonas aeruginosa DNA", "format": "nucleic-acid assay"}, "Pseudomonas aeruginosa [23]": {"tested_on": "Pseudomonas aeruginosa", "assay": "Antibacterial activity against Pseudomonas aeruginosa assessed as inhibition of bacterial growth by micro-broth dilution assay", "format": "functional"}, "Cell membrane [24]": {"tested_on": "Cell membrane", "assay": "Induction of cytoplasmic membrane depolarization in Pseudomonas aeruginosa assessed as increase in fluorescence intensity MIC by DiSC35 dye based fluorescence analysis", "format": "subcellular"}, "Pseudomonas aeruginosa [25]": {"tested_on": "Pseudomonas aeruginosa", "assay": "Antibacterial activity against Pseudomonas aeruginosa ATCC 27853 assessed as inhibition of bacterial growth measured after 6 hrs", "format": "functional, organism-based"}, "Pseudomonas aeruginosa [26]": {"tested_on": "Pseudomonas aeruginosa", "assay": "Induction of intracellular ROS accumulation in Pseudomonas aeruginosa assessed increase in fluorescence intensity", "format": "functional, organism-based"}, "Cell membrane [27]": {"tested_on": "Cell membrane", "assay": "Induction of cell membrane damage in Pseudomonas aeruginosa assessed as increase in nucleic acid leakage at 0.5 to 8 times MIC", "format": "subcellular"}, "Cell membrane [28]": {"tested_on": "Cell membrane", "assay": "Induction of cell membrane damage in Pseudomonas aeruginosa assessed as increase in protein leakage", "format": "subcellular"}, "Pseudomonas aeruginosa [29]": {"tested_on": "Pseudomonas aeruginosa", "assay": "Antibacterial activity against Pseudomonas aeruginosa ATCC 27853 assessed as inhibition of bacterial growth at 1 times MIC measured upto 14 hrs", "format": "functional, organism-based"}, "Enterococcus faecalis": {"tested_on": "Enterococcus faecalis", "assay": "Antibacterial activity against Enterococcus faecalis assessed as inhibition of bacterial growth by micro-broth dilution assay", "format": "functional"}, "Cell membrane [30]": {"tested_on": "Cell membrane", "assay": "Induction of inner membrane damage in Pseudomonas aeruginosa assessed as increase in red fluorescence cells at 0.5 to 8 times MIC incubated for 6 hrs by Calcein AM dye based fluorescence based assay", "format": "subcellular"}, "Cell membrane [31]": {"tested_on": "Cell membrane", "assay": "Induction of outer membrane permeabilization in Pseudomonas aeruginosa assessed as increase in fluorescence intensity by NPN-dye based fluorescence analysis", "format": "subcellular", "conditions": "dose 0.5-8 µg/ml"}, "Acinetobacter baumannii": {"tested_on": "Acinetobacter baumannii", "assay": "Antibacterial activity against Acinetobacter baumannii assessed as inhibition of bacterial growth by micro-broth dilution assay", "format": "functional"}, "Pseudomonas aeruginosa [32]": {"tested_on": "Pseudomonas aeruginosa", "assay": "Antibacterial activity against Pseudomonas aeruginosa assessed as […] inactivation at 0.5 to 8 times MIC by alamar blue staining based analysis", "format": "functional, organism-based"}, "Pseudomonas aeruginosa [33]": {"tested_on": "Pseudomonas aeruginosa", "assay": "Induction of resistance development in Pseudomonas aeruginosa ATCC 27853 assessed as fold increase in MIC treated over 30 serial passages", "format": "functional"}, "Staphylococcus aureus [34]": {"tested_on": "Staphylococcus aureus", "assay": "Antibacterial activity against Staphylococcus aureus ATCC 29213 assessed as inhibition of bacterial growth by micro-broth dilution assay", "format": "functional"}},
  "note": "The source made the active and inactive calls. The calls are words filed in the database; no cut-off is given here.",
  "data": [
    {"smiles": "Cn1ccnc1SCC(O)CN1C(=O)/C(=N\\Nc2ccc(C(=O)O)cc2)c2ccccc21", "note": "(configuration not stated)", "values": [
      {"measurement": "HC50", "setting": "[1]", "result": "> 512", "unit": "µg/mL"},
      {"measurement": "MIC", "setting": "Escherichia coli [2]", "result": 32, "unit": "µg/mL"},
      {"measurement": "Activity", "setting": "Pseudomonas aeruginosa [3]", "result": "Active"},
      {"measurement": "inhibition", "setting": "Pseudomonas aeruginosa [4]", "result": "Dose-Dependent Effect"},
      {"measurement": "Activity", "setting": "Cell membrane [5]", "result": "Dose-Dependent Effect"},
      {"measurement": "MIC", "setting": "Staphylococcus aureus [6]", "result": 8, "unit": "µg/mL"},
      {"measurement": "MIC", "setting": "Klebsiella pneumoniae", "result": 2, "unit": "µg/mL"},
      {"measurement": "inhibition", "setting": "Pseudomonas aeruginosa [7]", "result": "Dose-Dependent Effect"},
      {"measurement": "MIC", "setting": "Staphylococcus aureus [8]", "result": 8, "unit": "µg/mL"},
      {"measurement": "MIC", "setting": "Pseudomonas aeruginosa [9]", "result": 8, "unit": "µg/mL"},
      {"measurement": "Activity", "setting": "DNA [10]", "result": "Active"},
      {"measurement": "MIC", "setting": "Escherichia coli [11]", "result": 4, "unit": "µg/mL"},
      {"measurement": "selectivity ratio", "setting": "[12]", "result": "> 512"},
      {"measurement": "Ratio", "setting": "Pseudomonas aeruginosa [13]", "result": 8},
      {"measurement": "inhibition (INH)", "setting": "Pseudomonas aeruginosa [14]", "result": 15, "unit": "%"},
      {"measurement": "Activity", "setting": "Pseudomonas aeruginosa [15]", "result": "Active"},
      {"measurement": "Activity", "setting": "Pseudomonas aeruginosa [16]", "result": "Active"},
      {"measurement": "Activity", "setting": "Cell membrane [17]", "result": "Active"},
      {"measurement": "Activity", "setting": "Cell membrane [18]", "result": "Active"},
      {"measurement": "MIC", "setting": "Staphylococcus aureus [19]", "result": 8, "unit": "µg/mL"},
      {"measurement": "Activity", "setting": "Cell membrane [20]", "result": "Tde"},
      {"measurement": "Activity", "setting": "Pseudomonas aeruginosa [21]", "result": "<15", "unit": "%"},
      {"measurement": "Activity", "setting": "DNA [22]", "result": "Active"},
      {"measurement": "MIC", "setting": "Pseudomonas aeruginosa [23]", "result": 1, "unit": "µg/mL"},
      {"measurement": "Activity", "setting": "Cell membrane [24]", "result": "Dose-Dependent Effect"},
      {"measurement": "Activity", "setting": "Pseudomonas aeruginosa [25]", "result": "Active"},
      {"measurement": "Activity", "setting": "Pseudomonas aeruginosa [26]", "result": "Dose-Dependent Effect"},
      {"measurement": "Activity", "setting": "Cell membrane [27]", "result": "Active"},
      {"measurement": "Activity", "setting": "Cell membrane [28]", "result": "Dose-Dependent Effect"},
      {"measurement": "Activity", "setting": "Pseudomonas aeruginosa [29]", "result": "Active"},
      {"measurement": "MIC", "setting": "Enterococcus faecalis", "result": 4, "unit": "µg/mL"},
      {"measurement": "Activity", "setting": "Cell membrane [30]", "result": "Active"},
      {"measurement": "Activity", "setting": "Cell membrane [31]", "result": "Dose-Dependent Effect"},
      {"measurement": "MIC", "setting": "Acinetobacter baumannii", "result": 32, "unit": "µg/mL"},
      {"measurement": "Activity", "setting": "Pseudomonas aeruginosa [32]", "result": "Active"},
      {"measurement": "fold change (FC)", "setting": "Pseudomonas aeruginosa [33]", "result": 32},
      {"measurement": "MIC", "setting": "Staphylococcus aureus [34]", "result": 16, "unit": "µg/mL"}
    ]}
  ]
}
